In patent US20230227838A1, “ENHANCED CELL SURVIVAL AGAINST BIOTIC AND ABIOTIC STRESSES THROUGH SALICYLICK ACID-INDUCED NPR1 CONDENSATES” (priority 2020, published 2023):

Columns and labels:
EDS1 = test: Interaction with EDS1 (co-IP in planta, pull-down in E. coli); assay type: binding, Arabidopsis thaliana; details: in planta (1 mM SA 5 hr) and in E. coli
Text: Plasmid construction and E. coli-based ubiquitination: The coding sequences for all Arabidopsis genes were amplified from cDNA. Point mutations of AtNPR1 (AT1G64280) were generated using the QuikChange II site-directed mutagenesis kit (Agilent). Overlap PCR was used to generate the deletion/truncation mutations of AtCUL3A (AT1G26830) and AtNPR1. The WT and mutated coding sequences for all genes and gene fusions were sub-cloned into the pDONR207 gateway donor vector and confirmed by sequencing. The obtained entry vectors were recombined into either plant or E. coli destination vectors without or with an N- or C-terminal tag. For in planta expression, genes were recombined into the plant binary vectors pK7FWG2, pSITE-4NB and pLN462 to generate C-terminal eGFP, mCherry and HA fusions, respectively; into pK7WGF2, pEG201, pEG202, pEG203 and pEG204 to generate N-terminal eGFP, HA, FLAG, Myc and V5 fusions, respectively. […] For bimolecular fluorescence complementation (BiFC), entry vectors carrying the coding sequences of genes and their mutant variants were recombined into the pSITE-cEYFP-N1 binary vector for C-terminal fusion with the cYFP half (YC), or into the pSITE-nEYFP-C1 for N-terminal fusion with the nYFP half (YN). […]

Psm ES4326/AvrRpt2 = test: Bacterial growth assay in infected leaves; assay type: in vivo, Arabidopsis thaliana; details: SA pretreatment at 0.5 and 1 mM; WT plants, not in npr1-2 mutant
Text: Chemical treatment, pathogen infection and cell death assays. […] At 2 days, the bacterial colonies were scored.

NPR1-GFP = target: T1, NPR1-GFP (Arabidopsis thaliana, UniProt P93002); test: Localization of NPR1-GFP and sim3-GFP, transient expression in Arabidopsis seedlings; assay type: cell-based; details: for nuclear-cytoplasmic partitioning of NPR1-GFP: 2 hr
T1 construct: expressed in transfected cells; host or cells: Arabidopsis Col-0 seedlings, Agrobacterium-mediated transient expression
T1 sequence (P93002 1-593): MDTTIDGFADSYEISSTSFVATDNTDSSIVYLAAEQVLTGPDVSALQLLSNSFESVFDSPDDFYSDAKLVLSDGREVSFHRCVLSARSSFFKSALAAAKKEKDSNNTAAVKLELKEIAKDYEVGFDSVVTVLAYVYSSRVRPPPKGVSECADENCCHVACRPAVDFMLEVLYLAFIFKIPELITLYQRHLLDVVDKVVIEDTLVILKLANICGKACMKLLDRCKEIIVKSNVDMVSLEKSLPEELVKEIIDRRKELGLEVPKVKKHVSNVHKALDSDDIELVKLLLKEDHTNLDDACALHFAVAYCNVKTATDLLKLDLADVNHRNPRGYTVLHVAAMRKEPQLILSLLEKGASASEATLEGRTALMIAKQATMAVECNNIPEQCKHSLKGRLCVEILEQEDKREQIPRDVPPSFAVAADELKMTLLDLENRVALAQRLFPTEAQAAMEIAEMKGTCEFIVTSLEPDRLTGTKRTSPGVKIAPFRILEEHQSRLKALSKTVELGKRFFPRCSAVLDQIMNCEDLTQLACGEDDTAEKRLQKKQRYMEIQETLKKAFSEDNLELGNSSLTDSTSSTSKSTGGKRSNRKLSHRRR

Row | Molecule | interaction with EDS1 (EDS1) | pathogen growth (Psm ES4326/AvrRpt2) | nuclear-cytoplasmic partitioning of NPR1-GFP (NPR1-GFP; 1 mM SA) | nuclear-cytoplasmic partitioning of NPR1-GFP (NPR1-GFP; 5 mM SA) | formation of NPR1-GFP bodies in nucleus and cytoplasm (NPR1-GFP; SA treatment 2 hr) | subcellular localization (NPR1-GFP; after SA treatment) | cytoplasmic body formation (NPR1-GFP; lower SA concentration (1 mM), Arabidopsis seedlings)
1 | NPR1: wild-type Arabidopsis thaliana NPR1 protein, positive regulator of systemic acquired resistance | direct interaction |  |  |  |  |  | 
2 | O=C(O)c1ccccc1O [SA, salicylic acid] |  | increased pathogen growth | predominant nuclear accumulation of NPR1-GFP | fluorescence was detected also in the cytoplasm | induced formation of discrete NPR1-GFP bodies |  | 
3 | sim3: SUMOylation-deficient mutant of NPR1 (protein, left off: small tags and cut ends, SUMOylation-deficient mutant of NPR1) MDTTIDGFADSYEISSTSFVATDNTDSSIVYLAAEQVLTGPDVSALQLLSNSFESVFDSPDDFYSDAKLVLSDGREVSFHRCVLSARSSFFKSALAAAKKEKDSNNTAAVKLELKEIAKDYEVGFDSVVTVLAYVYSSRVRPPPKGVSECADENCCHVACRPAVDFMLEVLYLAFIFKIPELITLYQRHLLDVVDKVVIEDTLVILKLANICGKACMKLLDRCKEIIVKSNVDMVSLEKSLPEELVKEIIDRRKELGLEVPKVKKHVSNVHKALDSDDIELVKLLLKEDHTNLDDACALHFAVAYCNVKTATDLLKLDLADVNHRNPRGYTVLHVAAMRKEPQLAASALEKGASASEATLEGRTALMIAKQATMAVECNNIPEQCKHSLKGRLCVEILEQEDKREQIPRDVPPSFAVAADELKMTLLDLENRVALAQRLFPTEAQAAMEIAEMKGTCEFIVTSLEPDRLTGTKRTSPGVKIAPFRILEEHQSRLKALSKTVELGKRFFPRCSAVLDQIMNCEDLTQLACGEDDTAEKRLQKKQRYMEIQETLKKAFSEDNLELGNSSLTDSTSSTSKSTGGKRSNRKLSHRRR | could interact |  |  |  |  | predominant cytoplasmic localization | cytoplasmic bodies were also observed at the lower SA concentration
